From US10821115B2, “Compounds that inhibit Mcl-1 protein” (priority 2017, dated 2020)
Read-outs that look alike come from different tables or passages of the source.

Legend:
[1] = test system: human multiple myeloma cell line, OPM-2; assay: Cell viability assay (OPM-2 10 FBS), CellTiter-Glo; type: cell-based
In short: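 OPM-2 cells at 3000 cells/well in RPMI 1640 with 10% FBS were exposed to serially diluted compounds for 16 h at 37 °C, 5% CO2.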

[2] = molecular target: recombinant human Mcl-1 (residues 171-327) / Bim interaction (Homo sapiens (Human), UniProt Q07820); assay: biochemical; type: binding; settings: read-out: Mcl-1 HTRF IC50
Chain of recombinant human Mcl-1 (residues 171-327) / Bim interaction (Q07820 171-327): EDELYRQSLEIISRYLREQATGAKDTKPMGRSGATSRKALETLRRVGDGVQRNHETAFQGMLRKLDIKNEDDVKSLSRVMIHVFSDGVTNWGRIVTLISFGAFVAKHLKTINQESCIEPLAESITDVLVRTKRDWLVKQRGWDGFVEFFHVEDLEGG

[3] = Homo sapiens, OPM-2, 16 h, read-out: OPM-2 10% FBS IC50 IP, OPM-2 cells, 10% FBS, 16 h, CellTiter-Glo
[4] = TR-FRET, Mcl-1(171-327) / biotin-Bim (51-76)
[5] = read-out: OPM-2 10% FBS IC50 IP, OPM-2 cells, 10% FBS, 16 h, CellTiter-Glo
[6] = Homo sapiens, OPM-2, 16 h, read-out: OPM-2 10% FBS IC50 IP, OPM-2 cells, 10% FBS, 16 h incubation
[7] = 0.1 nM Mcl-1(171-327), 0.05 nM biotin-Bim (51-76)

Row | Compound | IC50 [1, 3] | IC50 [2, 4] | IC50 [1, 5] | IC50 [1, 6] | IC50 [2, 7]
1 | CC#C[C@]1(OC)CCC[C@H](C)[C@@H](C)S(=O)(=O)NC(=O)c2ccc3c(c2)N(C[C@@H]2CC[C@H]21)C[C@@]1(CCCc2cc(Cl)ccc21)CO3 [Example 100332, (1S,3′R,6′R,7′S,11′S,12′R)-6-chloro-7′-methoxy-11′,12′-dimethyl-7′-(1-propyn-1-yl)-3,4-dihydro-2H,15′H-spiro[naphthalene-1,22′-[20]oxa[13]thia[1,14]diazatetracyclo [14.7.2.0~3,6~.0~19,24~]pentacosa[16,18,24]trien]-15′-one 13′,13′-dioxide] | 4310 nM | 6.46 nM |  |  | 
2 | C[C@@H]1[C@@H](C)C/C=C/[C@](O)(C(C)(C)C#N)[C@@H]2CC[C@H]2CN2C[C@@]3(CCCc4cc(Cl)ccc43)COc3ccc(cc32)C(=O)NS1(=O)=O [Example 100059, 2-((1S,3′R,6′R,7′R,8′E,11′S,12′R)-6-chloro-7′-hydroxy-11′,12′-dimethyl-13′,13′-dioxido-15′-oxo-3,4-dihydro-2H-spiro[naphthalene-1,22′-[20]oxa[13]thia[1,14]diazatetracyclo [14.7.2.0~3,6~.0~19,24~]pentacosa[8,16,18,24]tetraen]-7′-yl)-2-methylpropanenitrile] | 3450 nM | 11.9 nM |  |  | 
3 | C[C@@H]1[C@@H](C)CCC[C@@](O)(C2CCN(C)CC2)[C@@H]2CC[C@H]2CN2C[C@@]3(CCCc4cc(Cl)ccc43)COc3ccc(cc32)C(=O)NS1(=O)=O [Example 100386, (1S,3′R,6′R,7′R,11′S,12′R)-6-chloro-7′-hydroxy-11′,12′-dimethyl-7′-(1-methyl-4-piperidinyl)-3,4-dihydro-2H,15′H-spiro[naphthalene-1,22′-[20]oxa[13]thia[1,14]diazatetracyclo [14.7.2.0~3,6~.0~19,24~]pentacosa[16,18,24]trien]-15′-one 13′,13′-dioxide] |  | 4.02 nM | 7270 nM |  | 
4 | CO[C@@]1(CC(C)=O)/C=C/C[C@H](C)[C@@H](C)S(=O)(=O)NC(=O)c2ccc3c(c2)N(C[C@@H]2CC[C@H]21)C[C@@]1(CCCc2cc(Cl)ccc21)CO3 [Example 100446, (1S,3′R,6′R,7′S,8′E,11′S,12′R)-6-chloro-7′-methoxy-11′,12′-dimethyl-7′-(2-oxopropyl)-3,4-dihydro-2H,15′H-spiro[naphthalene-1,22′-[20]oxa[13]thia[1,14]diazatetracyclo [14.7.2.0~3,6~.0~19,24~]pentacosa[8,16,18,24]tetraen]-15′-one 13′,13′-dioxide] | 345 nM | 0.126 nM |  |  | 
5 | CO[C@]1(CN2CCN3CCOC[C@@H]3C2)/C=C/C[C@H](C)[C@@H](CCO)S(=O)(=O)NC(=O)c2ccc3c(c2)N(C[C@@H]2CC[C@H]21)C[C@@]1(CCCc2cc(Cl)ccc21)CO3 [Example 357, (1S,3′R,6′R,7′R,8′E,11′S,12′R)-6-chloro-7′-((9aS)-hexahydropyrazino[2,1-c][1,4]oxazin-8(1H)-ylmethyl)-12′-(2-hydroxyethyl)-7′-methoxy-11′-methyl-3 ,4-dihydro-2H,15′H-spiro[naphthalene-1,22′-[20]oxa[13]thia[1,14]diazatetracyclo [14.7.2.0~3,6~.0~19,24~]pentacosa[8,16,18,24]tetraen]-15′-one 13′,13′-dioxide] |  |  |  | 118 nM | 0.067 nM
6 | C[C@H](C(=O)O)[C@@]1(O)/C=C/C[C@H](C)[C@@H](C)S(=O)(=O)NC(=O)c2ccc3c(c2)N(C[C@@H]2CC[C@H]21)C[C@@]1(CCCc2cc(Cl)ccc21)CO3 (single isomer, unassigned) [Example 100121] |  | 0.056 nM | 2530 nM |  | 
7 | CO[C@@]1(CN(C)CCN2CCOCC2)/C=C/C[C@H](C)[C@@H](C)S(=O)(=O)NC(=O)c2ccc3c(c2)N(C[C@@H]2CC[C@H]21)C[C@@]1(CCCc2cc(Cl)ccc21)CO3 [Example 35, (1S,3′R,6′R,7′S,8′E,11′S,12′R)-6-chloro-7′-methoxy-11′,12′-dimethyl-7′-((methyl(2-(4-morpholinyl)ethyl)amino)methyl)-3,4-dihydro-2H,15′H-spiro[naphthalene-1,22′-[20]oxa[13]thia[1,14]diazatetracyclo [14.7.2.0~3,6~.0~19,24~]pentacosa[8,16,18,24]tetraen]-15′-one 13′,13′-dioxide] |  |  |  | 235 nM | 0.218 nM
8 | CO[C@@]1(C[C@@H](O)C(C)C)/C=C/C[C@H](C)[C@@H](C)S(=O)(=O)NC(=O)c2ccc3c(c2)N(C[C@@H]2CC[C@H]21)C[C@@]1(CCCc2cc(Cl)ccc21)CO3 (single isomer, unassigned) [Example 100367] |  | 0.371 nM | 604 nM |  | 
9 | C[C@@H]1[C@@H](C)CCC[C@](O)([C@@H](C)C(=O)N(C)C)[C@@H]2CC[C@H]2CN2C[C@@]3(CCCc4cc(Cl)ccc43)COc3ccc(cc32)C(=O)NS1(=O)=O (single isomer, unassigned) [Example 100119] |  | 1.72 nM | 1570 nM |  | 
10 | CO[C@]1(CS(C)(=O)=O)/C=C/C[C@H](C)[C@@H](C)S(=O)(=O)NC(=O)c2ccc3c(c2)N(C[C@@H]2CC[C@H]21)C[C@@]1(CCCc2cc(Cl)ccc21)CO3 [Example 100492, (1S,3′R,6′R,7′R,8′E,11′S,12′R)-6-chloro-7′-methoxy-11′,12′-dimethyl-7′-((methylsulfonyl)methyl)-3,4-dihydro-2H,15′H-spiro[naphthalene-1,22′-[20]oxa[13]thia[1,14]diazatetracyclo [14.7.2.0~3,6~.0~19,24~]pentacosa[8,16,18,24]tetraen]-15′-one 13′,13′-dioxide] | 436 nM | 0.749 nM |  |  | 
11 | CO[C@]1(CN2CC(C)(N(C)C)C2)/C=C/C[C@H](C)[C@@H](C)S(=O)(=O)NC(=O)c2ccc3c(c2)N(C[C@@H]2CC[C@H]21)C[C@@]1(CCCc2cc(Cl)ccc21)CO3 [Example 60, (1S,3′R,6′R,7′R,8′E,11′S,12′R)-6-chloro-7′-((3-(dimethylamino)-3-methyl-1-azetidinyl)methyl)-7′-methoxy-11′,12′-dimethyl-3,4-dihydro-2H,15′H-spiro[naphthalene-1,22′-[20]oxa[13]thia[1,14]diazatetracyclo [14.7.2.0~3,6~.0~19,24~]pentacosa[8,16,18,24]tetraen]-15′-one 13′,13′-dioxide] |  |  |  | 129 nM | 0.287 nM
12 | CO[C@@]1(C[C@@H](O)C(C)C)/C=C/C[C@H](C)[C@@H](C)S(=O)(=O)NC(=O)c2ccc3c(c2)N(C[C@@H]2CC[C@H]21)C[C@@]1(CCCc2cc(Cl)ccc21)CO3 (single isomer, unassigned) [Example 100366] |  | 0.198 nM | 168 nM |  | 
13 | C[C@@H]1[C@@H](C)CCC[C@@]2(COC(=O)O2)[C@@H]2CC[C@H]2CN2C[C@@]3(CCCc4cc(Cl)ccc43)COc3ccc(cc32)C(=O)NS1(=O)=O [Example 100054, (3′R,4S,6′R,11′S,12′R,22′S)-6″-chloro-11′,12′-dimethyl-3″,4″-dihydro-2″H,15′H-dispiro[1,3-dioxolane-4,7′-[20]oxa[13]thia[1,14]diazatetracyclo [14.7.2.0~3,6~.0~19,24~]pentacosa[16,18,24]triene-22′,1″-naphthalene]-2,15′-dione 13′,13′-dioxide] | 9060 nM | 4.11 nM |  |  | 
14 | C[C@@H]1[C@@H](C)C/C=C/[C@@](O)(CC(=O)N2CCCCC2)[C@@H]2CC[C@H]2CN2C[C@@]3(CCCc4cc(Cl)ccc43)COc3ccc(cc32)C(=O)NS1(=O)=O [Example 100257, (1S,3′R,6′R,7′S,8′E,11′S,12′R)-6-chloro-7′-hydroxy-11′,12′-dimethyl-7′-(2-oxo-2-(1-piperidinyl)ethyl)-3,4-dihydro-2H,15′H-spiro[naphthalene-1,22′-[20]oxa[13]thia[1,14]diazatetracyclo [14.7.2.0~3,6~.0~19,24~]pentacosa[8,16,18,24]tetraen]-15′-one 13′,13′-dioxide] |  | 0.18 nM | 80 nM |  | 
15 | C[C@@H]1[C@@H](C)C/C=C/[C@](O)(c2ncccn2)[C@@H]2CC[C@H]2CN2C[C@@]3(CCCc4cc(Cl)ccc43)COc3ccc(cc32)C(=O)NS1(=O)=O (single isomer, unassigned) [Example 100274] | 543 nM | 0.377 nM |  |  | 
16 | CO[C@]1(C#CCN2CCOCC2)/C=C/C[C@H](C)[C@@H](C)S(=O)(=O)NC(=O)c2ccc3c(c2)N(C[C@@H]2CC[C@H]21)C[C@@]1(CCCc2cc(Cl)ccc21)CO3 [Example 100448, (1S,3′R,6′R,7′R,8′E,11′S,12′R)-6-chloro-7′-methoxy-11′,12′-dimethyl-7′-(3-(4-morpholinyl)-1-propyn-1-yl)-3,4-dihydro-2H,15′H-spiro[naphthalene-1,22′-[20]oxa[13]thia[1,14]diazatetracyclo [14.7.2.0~3,6~.0~19,24~]pentacosa[8,16,18,24]tetraen]-15′-one 13′,13′-dioxide] |  | 0.373 nM | 1920 nM |  | 
17 | C[C@@H]1[C@@H](C)C/C=C/[C@@](O)([C@@H]2CCN(C)C2=O)[C@@H]2CC[C@H]2CN2C[C@@]3(CCCc4cc(Cl)ccc43)COc3ccc(cc32)C(=O)NS1(=O)=O [Example 100106, (1S,3′R,6′R,7′S,8′E,11′S,12′R)-6-chloro-7′-hydroxy-11′,12′-dimethyl-7′-((3S)-1-methyl-2-oxo-3-pyrrolidinyl)-3,4-dihydro-2H,15′H-spiro[naphthalene-1,22′-[20]oxa[13]thia[1,14]diazatetracyclo [14.7.2.0~3,6~.0~19,24~]pentacosa[8,16,18,24]tetraen]-15′-one 13′,13′-dioxide] |  | 0.143 nM | 121 nM |  | 
